Literature values as cited in US20220370378A1 (SOCIETE DES PRODUITS NESTLE S.A., priority 2019, published 2022).

Key:
[1] = system: GLUT4 translocation in skeletal muscle cells; details: single-dose administration, compared among three inositol isomers
[2] = humans

## O[C@H]1[C@H](O)[C@@H](O)[C@H](O)[C@@H](O)[C@@H]1O [scyllo-inositol, (1r,2r,3r,4r,5r,6r)-Cyclohexane-1,2,3,4,5,6-hexol]
[1]
  GLUT4 translocation: most efficiently among three inositol isomers
[2]
  mean time to reach the maximum level after ingestion: about 3.8 h
